Experiment [1] addresses T1, recombinant ADAMTS1 (p65-ADAMTS1) expressed in E. coli (Homo sapiens, UniProt Q9UHI8).
T1 construct: 1452 nt cDNA fragment (nt 1206-2657, 484 codons; propeptide and C-terminal part absent; primer starts at KRFVSS, ends ISGSVTSA); pET32a Trx fusion, Trx removed by enterokinase, C-terminal His tag; E. coli BL21(DE3); heparin-sepharose purified; fusion about 70 kDa
T1 sequence (Q9UHI8 251-734): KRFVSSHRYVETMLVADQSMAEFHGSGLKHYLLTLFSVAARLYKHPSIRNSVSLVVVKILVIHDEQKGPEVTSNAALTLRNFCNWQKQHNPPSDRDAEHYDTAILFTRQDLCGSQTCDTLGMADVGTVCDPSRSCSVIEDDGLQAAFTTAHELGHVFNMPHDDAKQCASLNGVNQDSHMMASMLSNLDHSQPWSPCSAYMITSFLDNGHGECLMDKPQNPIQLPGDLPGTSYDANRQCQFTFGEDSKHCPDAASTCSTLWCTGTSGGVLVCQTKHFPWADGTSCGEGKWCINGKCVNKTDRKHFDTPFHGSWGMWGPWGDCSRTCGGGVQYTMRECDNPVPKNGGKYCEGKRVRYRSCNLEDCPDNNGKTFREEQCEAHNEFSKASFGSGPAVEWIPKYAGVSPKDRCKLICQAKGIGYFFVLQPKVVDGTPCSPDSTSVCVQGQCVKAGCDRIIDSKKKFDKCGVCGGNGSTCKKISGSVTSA
The experiment can be described thus: FRET peptide cleavage assay (Abz/Dnp), dose-response. Format: biochemical. The text has this:
FRET peptide cleavage assay (Abz/Dnp), dose-response on recombinant ADAMTS1 (p65-ADAMTS1) expressed in E. coli

Experiment [2] addresses T2, human recombinant ADAMTS1 expressed in the murine myeloma cell line (R&D Systems) (Homo sapiens, UniProt Q9UHI8).
T2 construct: commercial recombinant protein from R&D Systems, murine myeloma cell line
T2 sequence (Q9UHI8 253-967): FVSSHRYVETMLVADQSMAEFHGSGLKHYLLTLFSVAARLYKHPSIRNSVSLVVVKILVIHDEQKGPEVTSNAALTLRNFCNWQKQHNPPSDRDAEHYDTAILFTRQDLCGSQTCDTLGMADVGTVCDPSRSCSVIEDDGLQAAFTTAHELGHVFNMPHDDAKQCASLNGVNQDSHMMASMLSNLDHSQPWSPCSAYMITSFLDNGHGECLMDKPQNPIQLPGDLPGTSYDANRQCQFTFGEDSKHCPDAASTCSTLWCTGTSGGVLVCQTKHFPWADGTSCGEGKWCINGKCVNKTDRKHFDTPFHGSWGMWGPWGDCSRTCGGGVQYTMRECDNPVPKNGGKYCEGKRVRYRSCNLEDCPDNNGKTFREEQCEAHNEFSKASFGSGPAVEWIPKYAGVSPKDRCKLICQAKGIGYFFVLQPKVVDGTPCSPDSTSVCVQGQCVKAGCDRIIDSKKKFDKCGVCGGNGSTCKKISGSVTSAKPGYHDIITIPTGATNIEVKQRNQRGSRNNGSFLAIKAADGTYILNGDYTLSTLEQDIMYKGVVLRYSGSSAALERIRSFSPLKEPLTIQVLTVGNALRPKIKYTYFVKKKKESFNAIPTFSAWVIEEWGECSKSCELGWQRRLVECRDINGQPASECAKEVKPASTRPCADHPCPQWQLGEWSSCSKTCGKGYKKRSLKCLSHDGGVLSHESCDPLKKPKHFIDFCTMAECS
The description is as above. Format: biochemical. The text has this: FRET peptide cleavage assay (Abz/Dnp), dose-response on human recombinant ADAMTS1 expressed in the murine myeloma cell line (R&D Systems)

Each structure is given as a SMILES string.

As for `CC1=C[C@H](c2cc(/C=C/c3cc(O)cc(O)c3)c(O)cc2O)[C@@H](C(=O)c2ccc(O)cc2O)[C@H](c2ccc(O)cc2O)C1` [J14713, kuwanon P], the IC50 (in general, the concentration at which inhibition is half-maximal) came out at 7.6 ± 0.6 µM in experiment [1] and 5.5 ± 0.4 µM in experiment [2].
Take `CC1=C[C@H](c2cc3cc(-c4cc(O)cc(O)c4)oc3cc2O)[C@@H](C(=O)c2ccc(O)cc2O)[C@H](c2ccc(O)cc2O)C1` [J14715, albafuran C]: the IC50 turned out to be 11.9 ± 0.7 µM in experiment [1] and 10.7 ± 0.6 µM in experiment [2].

For the origin of these results see publication PMC6264766, “Fluorescence Resonance Energy Transfer Assay for High-Throughput Screening of ADAMTS1 Inhibitors” (Molecules, 2011).
